Results from patent publication US8822471B2, “Compounds, pharmaceutical compositions and uses thereof” (Boehringer Ingelheim International GmbH, priority 2011, dated 2014).

Target: T1, human GPR119 (Homo sapiens, UniProt Q8TDV5)
T1 construct: expression vector for human GPR119 cDNA (Acc. No. NP_848566); expressed in transfected cells
T1 sequence (Q8TDV5 1-335): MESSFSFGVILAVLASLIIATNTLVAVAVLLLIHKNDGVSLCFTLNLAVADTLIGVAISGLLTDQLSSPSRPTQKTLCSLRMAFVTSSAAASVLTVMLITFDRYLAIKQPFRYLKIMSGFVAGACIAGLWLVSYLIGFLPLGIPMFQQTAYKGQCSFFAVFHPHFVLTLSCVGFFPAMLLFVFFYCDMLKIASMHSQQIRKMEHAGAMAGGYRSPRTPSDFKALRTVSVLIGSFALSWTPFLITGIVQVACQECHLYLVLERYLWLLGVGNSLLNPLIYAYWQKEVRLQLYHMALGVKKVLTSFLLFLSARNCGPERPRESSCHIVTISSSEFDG
Assay: AlphaScreen cAMP assay in MIN6 cells stably transfected with human GPR119
Assay type: cell-based
Conditions: Min-6/hGPR119 cells, AlphaScreen cAMP Assay Kit, 45 minutes incubation at room temperature
Protocol: The compounds of formula I according to the invention modulate the activity of the G-protein-coupled receptor GPR119. The effect of the compounds on the activation of GPR119 and on the stimulation of intracellular cAMP concentration is determined using the AlphaScreen cAMP Assay Kit (Cat. No. #6760625R) made by PerkinElmer.
MIN6 cells [Miyazaki J et al. Endocrinology. 1990 July; 127(1):126-32] are stably transfected with an expression vector for human GPR119 cDNA (Acc. No. NP_848566). Min-6/hGPR119 cells are cultured in DMEM, 10% FBS, 50 μM β-mercaptoethanol, 0.3 mg/mL Geniticin, 2 mM GlutaMAX at 37° C. 5% CO2. For the assay, the cells are seeded in Optiplates (white, 384-well, 160 W-barcoded, TC, sterile with lid, Cat. No. #6007688 (Perkin Elmer); 10000 cells/well; 50 μl). The plates covered with lids are then incubated for 24 hours at 37° C./5% CO2. After the medium is aspirated from the wells completely, 10 μl of the test compound are added, the compounds are diluted using stimulating buffer (140 mM NaCl, 3.6 mM KCl, 0.5 mM NaH2PO4, 0.5 mM MgSO4, 1.5 mM CaCl2, 10 mM Hepes, 5 mM NaHCO3; pH 7.4. 0.5 mM IBMX and 0.1% BSA, the final DMSO concentration is 1%). After 45 minutes incubation at room temperature (approx. 20° C.), the cAMP concentrations are determined using the AlphaScreen cAMP Assay Kit (Cat. No. #6760625R from PerkinElmer).

Row | EC50 | Structure (SMILES)
1 | 16 nM | O=C(c1ccc(-c2cnco2)cc1)N(C1CC1)C1CCN(c2nc(CC(F)(F)F)no2)CC1 [Example 62, N-Cyclopropyl-4-oxazol-5-yl-N-{1-[3-(2,2,2-trifluoro-ethyl)-[1,2,4]oxadiazol-5-yl]-piperidin-4-yl}benzamide]
2 | 3 nM | CCc1cnc(N2CCC(N(C(=O)c3ccc(-c4cnco4)c(F)c3)C3CC3)CC2)nc1 [Example 63, N-Cyclopropyl-N-[1-(5-ethyl-pyrimidin-2-yl)-piperidin-4-yl]-3-fluoro-4-oxazol-5-yl-benzamide]
3 | 4 nM | CC(C)c1noc(N2CCC(N(C(=O)c3ccc(-c4cnco4)c(F)c3)C3CC3)CC2)n1 [Example 64, N-Cyclopropyl-3-fluoro-N-[1-(3-isopropyl-[1,2,4]oxadiazol-5-yl)-piperidin-4-yl]-4-oxazol-5-yl-benzamide]
4 | 7 nM | CCCc1noc(N2CCC(N(C(=O)c3ccc(-c4cnco4)c(F)c3)C3CC3)CC2)n1 [Example 65, N-Cyclopropyl-3-fluoro-4-oxazol-5-yl-N-[1-(3-propyl-[1,2,4]oxadiazol-5-yl)-piperidin-4-yl]-benzamide]
5 | 210 nM | Cc1cnc(N2CCC(N(C(=O)c3ccc(-c4cnco4)c(F)c3)C3CC3)CC2)cn1 [Example 66, N-Cyclopropyl-3-fluoro-N-[1-(5-methyl-pyrazin-2-yl)-piperidin-4-yl]-4-oxazol-5-yl-benzamide]
6 | 188 nM | CC(C)(C)c1noc(N2CCC(N(C(=O)c3ccc(-c4cnco4)c(F)c3)C3CC3)CC2)n1 [Example 67, N-[1-(3-tert-Butyl-[1,2,4]oxadiazol-5-yl)-piperidin-4-yl]-N-cyclopropyl-3-fluoro-4-oxazol-5-yl-benzamide]
7 | 211 nM | CCc1cnc(N2CCC(N(C(=O)c3ccc(-c4cnco4)c(F)c3)C3CC3)CC2)cn1 [Example 68, N-Cyclopropyl-N-[1-(5-ethyl-pyrazin-2-yl)-piperidin-4-yl]-3-fluoro-4-oxazol-5-yl-benzamide]
8 | 198 nM | CC(C)c1noc(N2CCC(N(C(=O)c3cc(F)c(-c4cnco4)c(F)c3)C3CC3)CC2)n1 [Example 69, N-Cyclopropyl-3,5-difluoro-N-[1-(3-isopropyl-[1,2,4]oxadiazol-5-yl)-piperidin-4-yl]-4-oxazol-5-yl-benzamide]
9 | 191 nM | Cc1cnc(N2CCC(N(C(=O)c3ccc(-c4cnco4)c(F)c3)C3CC3)CC2)nc1 [Example 70, N-Cyclopropyl-3-fluoro-N-[1-(5-methyl-pyrimidin-2-yl)-piperidin-4-yl]-4-oxazol-5-yl-benzamide]
10 | 11 nM | O=C(c1ccc(-c2cnco2)cc1)N(C1CC1)C1CCN(c2ncc(Br)cc2F)CC1 [Example 71, N-(5′-Bromo-3′-fluoro-3,4,5,6-tetrahydro-2H-[1,2′]bipyridinyl-4-yl)-N-cyclopropyl-4-oxazol-5-yl-benzamide]
11 | 864 nM | O=C(c1ccc(-c2cnco2)cc1)N(C1CC1)C1CCN(c2ccc(C3CC3)nn2)CC1 [Example 72, N-Cyclopropyl-N-[1-(6-cyclopropyl-pyridazin-3-yl)-piperidin-4-yl]-4-oxazol-5-yl-benzamide]
12 | 38 nM | Cc1cnc(N2CCC(N(C(=O)c3ccc(-c4cnco4)cc3)C3CC3)CC2)c(F)c1 [Example 73, N-Cyclopropyl-N-(3′-fluoro-5′-methyl-3,4,5,6-tetrahydro-2H-[1,2′]bipyridinyl-4-yl)-4-oxazol-5-yl-benzamide]
13 | 8 nM | O=C(c1ccc(-c2cnco2)cc1)N(C1CC1)C1CCN(c2ncc(C(F)(F)F)cc2F)CC1 [Example 74, N-Cyclopropyl-N-(3′-fluoro-5′-trifluoromethyl-3,4,5,6-tetrahydro-2H-[1,2′]bipyridinyl-4-yl)-4-oxazol-5-yl-benzamide]
14 | 87 nM | CCCOc1cnc(N2CCC(N(C(=O)c3ccc(-c4cnco4)cc3)C3CC3)CC2)nc1 [Example 75, N-Cyclopropyl-4-oxazol-5-yl-N-[1-(5-propoxy-pyrimidin-2-yl)-piperidin-4-yl]-benzamide]
15 | 165 nM | CCOc1cnc(N2CCC(N(C(=O)c3ccc(-c4cnco4)cc3)C3CC3)CC2)nc1 [Example 76, N-Cyclopropyl-N-[1-(5-ethoxy-pyrimidin-2-yl)-piperidin-4-yl]-4-oxazol-5-yl-benzamide]
16 | 115 nM | CC(C)Oc1cnc(N2CCC(N(C(=O)c3ccc(-c4cnco4)cc3)C3CC3)CC2)nc1 [Example 77, N-Cyclopropyl-N-[1-(5-isopropoxy-pyrimidin-2-yl)-piperidin-4-yl]-4-oxazol-5-yl-benzamide]
17 | 43 nM | O=C(c1ccc(-c2cnco2)cc1)N(C1CC1)C1CCN(c2cnc(C3CC3)cn2)CC1 [Example 78, N-Cyclopropyl-N-[1-(5-cyclopropyl-pyrazin-2-yl)-piperidin-4-yl]-4-oxazol-5-yl-benzamide]
18 | 75 nM | O=C(c1ccc(-c2cnco2)cc1)N(C1CC1)C1CCN(c2nnc(-c3ccccc3)s2)CC1 [Example 79, N-Cyclopropyl-4-oxazol-5-yl-N-[1-(5-phenyl-[1,3,4]thiadiazol-2-yl)-piperidin-4-yl]-benzamide]
19 | 179 nM | O=C(c1ccc(-c2cnco2)cc1)N(C1CC1)C1CCN(c2ccc(Cl)cn2)CC1 [Example 80, N-(5′-Chloro-3,4,5,6-tetrahydro-2H-[1,2′]bipyridinyl-4-yl)-N-cyclopropyl-4-oxazol-5-yl-benzamide]
20 | 498 nM | COC(=O)c1cnc(N2CCC(N(C(=O)c3ccc(-c4cnco4)cc3)C3CC3)CC2)cn1 [Example 81, 5-{4-[Cyclopropyl-(4-oxazol-5-yl-benzoyl)-amino]-piperidin-1-yl}-pyrazine-2-carboxylic acid methyl ester]
21 | 116 nM | Cc1cnc(C)c(N2CCC(N(C(=O)c3ccc(-c4cnco4)cc3)C3CC3)CC2)n1 [Example 82, N-Cyclopropyl-N-[1-(3,6-dimethyl-pyrazin-2-yl)-piperidin-4-yl]-4-oxazol-5-yl-benzamide]
22 | 10 nM | O=C(c1ccc(-c2cnco2)cc1)N(C1CC1)C1CCN(c2cnc(I)cn2)CC1 [Example 83, N-Cyclopropyl-N-[1-(5-iodo-pyrazin-2-yl)-piperidin-4-yl]-4-oxazol-5-yl-benzamide]
23 | 116 nM | COC(=O)c1cnc(N2CCC(N(C(=O)c3ccc(-c4cnco4)cc3)C3CC3)CC2)nc1 [Example 84, 2-{4-[Cyclopropyl-(4-oxazol-5-yl-benzoyl)-amino]-piperidin-1-yl}-pyrimidine-5-carboxylic acid methyl ester]
24 | 449 nM | O=C(c1ccc(-c2cnco2)cc1)N(C1CC1)C1CCN(c2cnccn2)CC1 [Example 85, N-Cyclopropyl-4-oxazol-5-yl-N-(1-pyrazin-2-yl-piperidin-4-yl)-benzamide]
25 | 139 nM | N#Cc1cnc(N2CCC(N(C(=O)c3ccc(-c4cnco4)cc3)C3CC3)CC2)cn1 [Example 86, N-[1-(5-Cyano-pyrazin-2-yl)-piperidin-4-yl]-N-cyclopropyl-4-oxazol-5-yl-benzamide]
26 | 25 nM | O=C(c1ccc(-c2cnco2)cc1)N(C1CC1)C1CCN(c2nnc(C(F)(F)F)s2)CC1 [Example 87, N-Cyclopropyl-4-oxazol-5-yl-N-[1-(5-trifluoromethyl-[1,3,4]thiadiazol-2-yl)-piperidin-4-yl]-benzamide]
27 | 71 nM | O=C(c1ccc(-c2cnco2)cc1)N(C1CC1)C1CCN(c2ncc(C3CC3)cn2)CC1 [Example 88, N-Cyclopropyl-N-[1-(5-cyclopropyl-pyrimidin-2-yl)-piperidin-4-yl]-4-oxazol-5-yl-benzamide]
28 | 34 nM | Cc1cnc(N2CCC(N(C(=O)c3ccc(-c4cnco4)cc3)C3CC3)CC2)nc1 [Example 89, N-Cyclopropyl-N-[1-(5-methyl-pyrimidin-2-yl)-piperidin-4-yl]-4-oxazol-5-yl-benzamide]
